Patent US6936615B2, “Heteroaryl derivatives and their use as medicaments” (Zentaris GmbH, priority 2000, dated 2005)

Columns and labels:
[1] = system: human breast adenocarcinoma line MCF7 (ATCC HTB22); experiment: XTT test for cellular dehydrogenase activity (proliferation test), MCF7; format: cell-based; conditions: test period of 48 h
Experimental: (§1) In a proliferation test, the antiproliferative activity of the substance D-43411 was examined using established tumor cell lines. In the test used, the cellular dehydrogenation activity is determined, which makes it possible to determine the vitality of the cell and, indirectly, the cell count. The cell lines used are the human cervical carcinoma cell lines KB/HeLa (ATCC/CCL17), the murine lymphocyte leukaemia L1210 (ATCC CCL-219), the human breast adenocarcinoma line MCF7/ATCC HTB22) and the ovary adenocarcinoma line SKOV-3 (ATCC HTB77). These are established cell lines which are very well characterized and were obtained from ATCC and cultured.
(§2) The adherently growing tumor cell lines HeLa/KB, SKOV-3 and MCF7 and the L1210 leukaemia line, which grows in suspension, were cultivated under standard conditions in an incubator with gas inlet at 37° C., 5% CO2 and 95% atmospheric humidity. […]
(§3) For the XTT assay, 1 mg/ml of XTT (sodium 3′-[1-(phenylaminocarbonyl)-3,4-tetrazolium]-bis(4-methoxy-6-nitro)benzenesulfonic acid) is dissolved in RPMI-1640 medium without Phenol Red. […] The cell plates are then incubated in the incubator with gas inlet for a further 3 h, and the optical density (OD490nm) is determined in a photometer.
(§4) Using the OD490nm obtained, the inhibition in percent relative to the control is calculated. […]

[2] = system: murine lymphocyte leukaemia L1210 (ATCC CCL-219); experiment: XTT test for cellular dehydrogenase activity (proliferation test), L1210; format: cell-based; conditions: Mus musculus, values determined from 5 substance concentrations, 45 h incubation + 3 h XTT, read-out: XTT-Assay IC50 L1210 (in-vitro cytotoxicity)
Experimental: as §1, §2, §3, §4

[3] = system: human cervical carcinoma cell lines KB/HeLa (ATCC/CCL17); experiment: XTT test for cellular dehydrogenase activity (proliferation test), KB/HeLa; format: cell-based; conditions: values determined from 5 substance concentrations, 45 h incubation + 3 h XTT, read-out: XTT-Assay IC50 KB/HeLa (in-vitro cytotoxicity)
Experimental: as §1, §2, §3, §4

[4] = system: ovary adenocarcinoma line SKOV-3 (ATCC HTB77); experiment: XTT test for cellular dehydrogenase activity (proliferation test), SKOV-3; format: cell-based; conditions: Homo sapiens, SK-OV-3, values determined from 5 substance concentrations, 45 h incubation + 3 h XTT, read-out: XTT-Assay IC50 SKOV-3 (in-vitro cytotoxicity)
Experimental: as §1, §2, §3, §4

SMILES	IC50 ([1]; Homo sapiens, values determined from 5 substance concentrations, read-out: XTT-Assay IC50 MCF7 (in-vitro cytotoxicity)) [ng/mL]	inhibition (antiproliferative effect) in MCF7 ([1]; at 3.16_g/ml) [%]	IC50 [2] [ng/mL]	IC50 [3] [ng/mL]	IC50 [4] [ng/mL]	melting point [°C]
COc1cc(OC)cc(N2CCN(C(=O)C3c4ccccc4NC4C=CC=CC43)CC2)c1 [D-43411]	> 3160	18	< 0.3	< 0.3	< 0.3	–
COc1cc(OC)cc(N2CCN(C(=O)c3ccnc4ccccc34)CC2)c1	–	–	–	–	–	146 to 148
